Test results from patent publication US20260109715A1, “IMIDAZOPYRIDINE DERIVATIVES WITH BICYCLIC STRUCTURE” (PUBLIC UNIVERSITY CORPORATION YOKOHAMA CITY UNIVERSITY, priority 2022, published 2026).
Structures can show the parent of a compound that is named as a salt.

Tests used:
[1] = system: Snhg1 transcript (NMD target gene) in EMT6 murine breast cancer cell line; assay: Measurement of NMD inhibitory activity in cells (increase in Snhg1 transcript, real-time PCR); set-up: species or system mouse; details: Mus musculus, 6 hours treatment, concentration giving 1/2 of maximum Snhg1 fold change of positive control, read-out: Test Example 2 Cell-based Snhg1 EC50
Experimental: The NMD inhibitory activity of a compound of the present invention or a pharmaceutically acceptable salt thereof in cells can be measured, for example, by the method described below. EMT6 murine breast cancer cell line is treated with a test substance in vitro for 6 hours, and the increase in the transcript of Snhg1, a known NMD target gene, is quantified as an indicator of NMD inhibition. Quantification is performed by real-time PCR.
NMD inhibitory activity was measured by treating EMT6 murine breast cancer cell line (ATCC) with a test substance and quantifying the increase in the transcript of Snhg1, an NMD target gene (see F. Usui, et al., Scientific Reports volume 9, Article number: 1279 (2019) for the NMD target gene). That is, EMT6 cells were suspended in Waymouth's medium (Gibco, 15% FBS) and seeded in a 96-well plate at 2×10^4 cells/well. The cells were cultured for 1 day. The next day, serially diluted test substance (DMSO solution, final DMSO concentration: 2%) was added. After culturing for 6 hours, the supernatant was removed, and RNA was extracted using the RNeasy 96 kit (QIAGEN, 74182). After synthesizing cDNA using the High Capacity cDNA Reverse Transcription kit (Applied Biosystems, 4368813), the cDNA was mixed with PrimeTime Gene Expression Master Mix (Integrated DNA Technologies) and various probes, and gene expression was quantified using QuantStudio 6 Flex (Thermo Fisher Scientific Inc.). For the probe for the Snhg1 gene, which is an NMD target, Mm.PT.58.44039547 (FAM)(Integrated DNA Technologies) was used, and for the probe for the Tbp gene, which is an endogenous control, Mm00446973_m1 Tbp (VIC-PL) (Applied Biosystems) was used. The relative quantification of Snhg1 transcripts was calculated by the ΔΔCT method, using Thp as an endogenous control and setting the expression level of Snhg1 in untreated wells to 1.
A known NMD inhibitory compound (pyrimidine derivative Example 11i, Bioorg Med Chem Lett. 2012, 22(21), 6636-41) was used as a positive control drug for NMD inhibition. The NMD inhibitory activity of the test substance-added well was calculated as follows: the maximum fold change in Sngh1 expression in the positive control drug-added well relative to that in the untreated well was defined as the maximum NMD inhibitory activity, and the EC50 (compound concentration showing 50%/activity) of the test substance showing a ½-fold change was calculated by the GROWTH function of Microsoft Excel.

[2] = target: human SMG1 enzyme (Homo sapiens, UniProt Q96Q15); assay: Measurement of SMG1 kinase activity (ADP-Glo Kinase Assay); assay type: biochemical; details: purified human SMG1 enzyme 5 nM, Upf1 peptide substrate, ATP 4 μM; qAC50 synonymous with IC50; read-out: Test Example 1 ADP-Glo IC50
Chain of human SMG1 enzyme (Q96Q15 whole entry): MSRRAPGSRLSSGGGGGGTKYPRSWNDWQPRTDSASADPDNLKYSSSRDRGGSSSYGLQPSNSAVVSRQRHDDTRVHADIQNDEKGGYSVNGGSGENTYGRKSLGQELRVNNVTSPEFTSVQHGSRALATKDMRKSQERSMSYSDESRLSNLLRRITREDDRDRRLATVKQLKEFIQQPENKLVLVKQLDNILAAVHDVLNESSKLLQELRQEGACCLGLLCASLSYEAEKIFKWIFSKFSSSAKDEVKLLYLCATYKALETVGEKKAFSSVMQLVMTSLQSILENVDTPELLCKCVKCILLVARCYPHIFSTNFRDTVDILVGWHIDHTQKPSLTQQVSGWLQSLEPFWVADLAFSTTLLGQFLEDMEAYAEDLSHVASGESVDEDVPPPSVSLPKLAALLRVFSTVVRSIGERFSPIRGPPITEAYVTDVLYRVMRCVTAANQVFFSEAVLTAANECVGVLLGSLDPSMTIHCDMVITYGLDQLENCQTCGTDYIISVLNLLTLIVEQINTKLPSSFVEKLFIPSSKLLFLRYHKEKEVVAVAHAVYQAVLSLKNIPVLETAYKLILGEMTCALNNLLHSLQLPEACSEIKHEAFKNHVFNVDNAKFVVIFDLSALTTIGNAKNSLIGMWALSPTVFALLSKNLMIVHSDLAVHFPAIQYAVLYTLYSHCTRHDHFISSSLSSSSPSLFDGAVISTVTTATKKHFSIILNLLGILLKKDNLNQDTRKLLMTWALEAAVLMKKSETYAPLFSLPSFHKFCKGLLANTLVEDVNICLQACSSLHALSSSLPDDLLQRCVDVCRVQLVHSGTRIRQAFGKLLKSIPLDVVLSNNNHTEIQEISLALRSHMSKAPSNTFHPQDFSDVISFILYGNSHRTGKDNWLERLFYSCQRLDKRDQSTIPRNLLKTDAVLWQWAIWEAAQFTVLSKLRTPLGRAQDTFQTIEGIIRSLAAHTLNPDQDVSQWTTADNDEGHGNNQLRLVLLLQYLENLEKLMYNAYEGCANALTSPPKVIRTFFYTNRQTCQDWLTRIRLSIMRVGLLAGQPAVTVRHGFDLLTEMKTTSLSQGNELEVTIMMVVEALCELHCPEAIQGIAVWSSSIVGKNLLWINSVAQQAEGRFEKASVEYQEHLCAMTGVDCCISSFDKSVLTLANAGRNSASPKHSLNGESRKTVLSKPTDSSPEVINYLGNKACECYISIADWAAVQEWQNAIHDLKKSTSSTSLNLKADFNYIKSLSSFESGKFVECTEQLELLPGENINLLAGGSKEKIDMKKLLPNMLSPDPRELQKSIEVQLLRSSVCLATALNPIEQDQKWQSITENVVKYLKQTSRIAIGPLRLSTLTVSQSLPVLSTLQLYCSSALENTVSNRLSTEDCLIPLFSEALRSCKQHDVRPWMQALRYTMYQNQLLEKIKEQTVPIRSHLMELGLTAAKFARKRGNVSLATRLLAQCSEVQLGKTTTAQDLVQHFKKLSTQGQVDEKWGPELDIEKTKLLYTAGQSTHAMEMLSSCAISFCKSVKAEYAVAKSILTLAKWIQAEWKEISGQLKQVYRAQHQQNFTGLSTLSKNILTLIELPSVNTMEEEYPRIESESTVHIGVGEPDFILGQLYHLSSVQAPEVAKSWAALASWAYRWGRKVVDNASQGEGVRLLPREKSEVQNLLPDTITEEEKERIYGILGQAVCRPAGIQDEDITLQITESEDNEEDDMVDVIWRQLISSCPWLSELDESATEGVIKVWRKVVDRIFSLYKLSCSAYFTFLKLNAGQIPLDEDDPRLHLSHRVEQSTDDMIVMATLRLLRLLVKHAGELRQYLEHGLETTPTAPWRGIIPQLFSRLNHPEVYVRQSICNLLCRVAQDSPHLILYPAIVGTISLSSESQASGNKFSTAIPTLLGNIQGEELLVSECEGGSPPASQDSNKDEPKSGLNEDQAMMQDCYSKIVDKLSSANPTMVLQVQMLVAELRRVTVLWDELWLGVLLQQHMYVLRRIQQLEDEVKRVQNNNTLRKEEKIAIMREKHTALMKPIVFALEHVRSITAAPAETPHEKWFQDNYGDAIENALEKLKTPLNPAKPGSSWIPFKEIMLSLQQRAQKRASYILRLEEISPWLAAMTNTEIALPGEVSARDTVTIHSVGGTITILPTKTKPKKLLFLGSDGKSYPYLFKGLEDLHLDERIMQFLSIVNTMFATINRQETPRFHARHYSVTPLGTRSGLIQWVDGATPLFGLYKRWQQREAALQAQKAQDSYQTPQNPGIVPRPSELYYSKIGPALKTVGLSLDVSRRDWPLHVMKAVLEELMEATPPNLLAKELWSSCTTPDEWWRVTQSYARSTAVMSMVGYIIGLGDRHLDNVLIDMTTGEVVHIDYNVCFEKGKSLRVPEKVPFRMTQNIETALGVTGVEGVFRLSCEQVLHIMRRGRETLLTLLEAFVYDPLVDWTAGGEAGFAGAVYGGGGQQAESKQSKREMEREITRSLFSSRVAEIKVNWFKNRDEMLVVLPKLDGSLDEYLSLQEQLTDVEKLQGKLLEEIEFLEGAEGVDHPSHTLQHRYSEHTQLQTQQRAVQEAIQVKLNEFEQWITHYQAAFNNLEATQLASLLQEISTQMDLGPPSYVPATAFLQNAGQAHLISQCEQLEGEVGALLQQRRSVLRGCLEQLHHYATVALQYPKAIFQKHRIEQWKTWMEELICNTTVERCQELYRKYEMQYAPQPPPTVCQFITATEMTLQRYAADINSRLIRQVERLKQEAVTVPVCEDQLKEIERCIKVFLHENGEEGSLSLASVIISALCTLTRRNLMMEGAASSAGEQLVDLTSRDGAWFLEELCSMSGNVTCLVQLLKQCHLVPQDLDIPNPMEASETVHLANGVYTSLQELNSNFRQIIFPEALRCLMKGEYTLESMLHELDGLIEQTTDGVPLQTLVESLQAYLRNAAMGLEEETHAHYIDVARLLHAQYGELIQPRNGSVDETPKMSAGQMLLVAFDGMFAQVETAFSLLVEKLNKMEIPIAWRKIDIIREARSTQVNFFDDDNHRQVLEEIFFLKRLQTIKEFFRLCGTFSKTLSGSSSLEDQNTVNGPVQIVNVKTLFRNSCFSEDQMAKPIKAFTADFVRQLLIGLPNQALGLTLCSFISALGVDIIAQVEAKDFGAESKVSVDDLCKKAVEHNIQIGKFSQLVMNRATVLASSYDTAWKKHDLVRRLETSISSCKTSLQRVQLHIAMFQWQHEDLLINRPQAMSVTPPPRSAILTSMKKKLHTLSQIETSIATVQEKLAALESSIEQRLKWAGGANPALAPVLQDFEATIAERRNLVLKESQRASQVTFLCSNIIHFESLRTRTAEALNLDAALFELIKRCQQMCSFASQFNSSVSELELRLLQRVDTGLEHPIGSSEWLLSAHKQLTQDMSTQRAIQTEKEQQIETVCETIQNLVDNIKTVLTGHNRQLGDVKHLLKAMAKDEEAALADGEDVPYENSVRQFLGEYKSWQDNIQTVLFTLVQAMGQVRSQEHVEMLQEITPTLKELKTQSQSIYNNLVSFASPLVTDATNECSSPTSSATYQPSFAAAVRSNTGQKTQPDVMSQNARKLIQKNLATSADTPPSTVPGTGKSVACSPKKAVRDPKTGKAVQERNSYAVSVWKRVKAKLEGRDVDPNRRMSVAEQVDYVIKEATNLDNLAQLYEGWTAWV
Description: The SMG1 kinase inhibitory activity of a compound of the present invention or a pharmaceutically acceptable salt thereof can be measured, for example, by the method described below. Using purified human SMG1 protein and a substrate peptide as materials, the kinase activity can be measured by the ADP-Glo Kinase Assay; the SMG1 kinase inhibitory activity of a test substance can be evaluated by comparing the kinase activity in the presence and absence of the test substance.
The reaction was performed by the ADP-Glo Kinase Assay (Promega, catalog number V9102) using a 384-well plate under the conditions of an assay buffer (100 mM HEPES (pH 7.5), 50 mM NaCl, 10 mM MnCl2, 0.01% BSA, 0.1% Tween 20.5 mM TCEP). After incubating a test substance (DMSO solution; final DMSO concentration: 1%) and purified human SMG1 enzyme (Genes Dev. 2011 Jan. 15; 25(2): 153-164, produced by Daiichi Sankyo RD Novare Co., Ltd.; final concentration: 5 nM) at room temperature for 15 minutes, a substrate, Upf1 peptide (Biotin-(PEG8) QIDVALSQDSTYQG, produced by Eurofins genomics; final concentration: 8 μg/mL), and ATP (Promega: 4 μM) were added, and the mixture was reacted at room temperature for 60 minutes (see Non-Patent Literature R. Melero, et al., Structure Volume 22, Issue 8, 5 Aug. 2014, Pages 1105-1119 for the Upf1 peptide). ADP-Glo Reagent was added, and the mixture was reacted at room temperature for 40 minutes. Kinase Detection Reagent was added, and the mixture was reacted for another 30 minutes. The luminescence intensity was measured using EnVision (PerkinElmer).
The activity value (%) of the test substance-added well was calculated from the following formula, where the average luminescence intensity of the DMSO-added well was 0% and the average luminescence intensity of the SMG1 enzyme-free well was −100%.
The qAC50 (compound concentration showing 50% inhibition, synonymous with IC50) of the test substance was calculated using the activity value (%) at each concentration by Smart fit of Screener (Genedata). Smart fit is a general 4-parameter logistic regression model.

SMILES | EC50 [1] [nM] | IC50 [2] [nM]
Cc1nc(Cl)cc2[nH]c(-c3cc4c(-c5c(F)cccc5C#N)nccc4[nH]c3=O)nc12 [Example 45, 2-[3-(6-chloro-4-methyl-1H-imidazo[4,5-c]pyridin-2-yl)-2-oxo-1,2-dihydro-1,6-naphthyridin-5-yl]-3-fluorobenzonitrile] | 11 | 0.8
CC(C)(O)c1cccc(-c2nccc3[nH]c(=O)c(-c4nc5cnc(Cl)cc5[nH]4)cc23)c1 [Example 46, 3-(6-chloro-1H-imidazo[4,5-c]pyridin-2-yl)-5-[3-(2-hydroxypropan-2-yl)phenyl]-1,6-naphthyridin-2(1H)-one] | 115 | 1.8
O=c1[nH]c2ccnc(-c3cccc(CN4C5CCC4COC5)c3)c2cc1-c1nc2cnc(Cl)cc2[nH]1 [Example 47, 3-(6-chloro-1H-imidazo[4,5-c]pyridin-2-yl)-5-[3-(3-oxa-8-azabicyclo[3.2.1]octan-8-ylmethyl)phenyl]-1,6-naphthyridin-2(1H)-one] | 117 | 2.1
Cc1ccccc1-c1nccc2[nH]c(=O)c(-c3nc4c(N5CCCC(N)C5)nc(Cl)cc4[nH]3)cc12 (stereo not shown) [Example 56, 3-[4-(3-aminopiperidin-1-yl)-6-chloro-1H-imidazo[4,5-c]pyridin-2-yl]-5-(2-methylphenyl)-1,6-naphthyridin-2(1H)-one hydrochloride] | 1.2 | 0.52
COc1cc(C2CC2)ncc1-c1nccc2[nH]c(=O)c(-c3nc4cnc(Cl)cc4[nH]3)cc12 [Example 62, 3-(6-chloro-1H-imidazo[4,5-c]pyridin-2-yl)-5-(6-cyclopropyl-4-methoxypyridin-3-yl)-1,6-naphthyridin-2(1H)-one] | 16 | 0.95
COc1nc(C)ncc1-c1nccc2[nH]c(=O)c(-c3nc4c(NCC(F)F)nc(Cl)cc4[nH]3)cc12 [Example 69, 3-(6-chloro-4-[(2,2-difluoroethyl)amino]-1H-imidazo[4,5-c]pyridin-2-yl)-5-(4-methoxy-2-methylpyrimidin-5-yl)-1,6-naphthyridin-2(1H)-one] | 6.8 | 0.91
COc1ncc(-c2nccc3[nH]c(=O)c(-c4nc5c(N6C[C@H](F)C[C@H]6C)nc(Cl)cc5[nH]4)cc23)c(OC)n1 [Example 71, 3-(6-chloro-4-[(2R,4R)-4-fluoro-2-methylpyrrolidin-1-yl]-1H-imidazo[4,5-c]pyridin-2-yl)-5-(2,4-dimethoxypyrimidin-5-yl)-1,6-naphthyridin-2(1H)-one] | 2.3 | 1.3
CCc1nc(Cl)cc2[nH]c(-c3cc4c(-c5cnc(C6CC6)cc5OC(F)F)nccc4[nH]c3=O)nc12 [Example 75, 3-(6-chloro-4-ethyl-1H-imidazo[4,5-c]pyridin-2-yl)-5-[6-cyclopropyl-4-(difluoromethoxy)pyridin-3-yl]-1,6-naphthyridin-2(1H)-one] | 51 | 1.2
Cn1ccc(-c2nccc3[nH]c(=O)c(-c4nc5cnc(Cl)cc5[nH]4)cc23)c1 [Example 86, 3-(6-chloro-1H-imidazo[4,5-c]pyridin-2-yl)-5-(1-methyl-1H-pyrrol-3-yl)-1,6-naphthyridin-2(1H)-one] | 43 | 1.8
CCc1nc(Cl)cc2[nH]c(-c3cc4c(-c5c(C)cnn5C)nccc4[nH]c3=O)nc12 [Example 87, 3-(6-chloro-4-ethyl-1H-imidazo[4,5-c]pyridin-2-yl)-5-(1,4-dimethyl-1H-pyrazol-5-yl)-1,6-naphthyridin-2(1H)-one] | 59 | 1.3
Cc1nn(C)c(C)c1-c1nccc2[nH]c(=O)c(-c3nc4cnc(Cl)cc4[nH]3)cc12 [Example 88, 3-(6-chloro-1H-imidazo[4,5-c]pyridin-2-yl)-5-(1,3,5-trimethyl-1H-pyrazol-4-yl)-1,6-naphthyridin-2(1H)-one] | 46 | 1.1
CCc1nc(Cl)cc2[nH]c(-c3cc4c(-c5c(C)nn(C)c5C)nccc4[nH]c3=O)nc12 [Example 89, 3-(6-chloro-4-ethyl-1H-imidazo[4,5-c]pyridin-2-yl)-5-(1,3,5-trimethyl-1H-pyrazol-4-yl)-1,6-naphthyridin-2(1H)-one] | 14 | 0.59
Cc1nn(CC2CC2)c(C)c1-c1nccc2[nH]c(=O)c(-c3nc4cnc(Cl)cc4[nH]3)cc12 [Example 90, 3-(6-chloro-1H-imidazo[4,5-c]pyridin-2-yl)-5-[1-(cyclopropylmethyl)-3,5-dimethyl-1H-pyrazol-4-yl]-1,6-naphthyridin-2(1H)-one] | 74 | 1.5

The remaining lines, values ahead:

EC50 [1] [nM] | IC50 [2] [nM] | SMILES
41 | 0.52 | COc1cc(C)ncc1-c1nccc2[nH]c(=O)c(-c3nc4c(C)nc(Cl)cc4[nH]3)cc12 [Example 59, 3-(6-chloro-4-methyl-1H-imidazo[4,5-c]pyridin-2-yl)-5-(4-methoxy-6-methylpyridin-3-yl)-1,6-naphthyridin-2(1H)-one]
5.7 | 0.7 | CCc1nc(Cl)cc2[nH]c(-c3cc4c(-c5cnc(C)cc5OC)nccc4[nH]c3=O)nc12 [Example 60, 3-(6-chloro-4-ethyl-1H-imidazo[4,5-c]pyridin-2-yl)-5-(4-methoxy-6-methylpyridin-3-yl)-1,6-naphthyridin-2(1H)-one]
14 | 0.68 | COc1cc(C(F)F)ncc1-c1nccc2[nH]c(=O)c(-c3nc4c(C)nc(Cl)cc4[nH]3)cc12 [Example 63, 3-(6-chloro-4-methyl-1H-imidazo[4,5-c]pyridin-2-yl)-5-[6-(difluoromethyl)-4-methoxypyridin-3-yl]-1,6-naphthyridin-2(1H)-one]
15 | 0.84 | COc1cc(C(F)(F)F)ncc1-c1nccc2[nH]c(=O)c(-c3nc4c(C)nc(Cl)cc4[nH]3)cc12 [Example 64, 3-(6-chloro-4-methyl-1H-imidazo[4,5-c]pyridin-2-yl)-5-[4-methoxy-6-(trifluoromethyl)pyridin-3-yl]-1,6-naphthyridin-2(1H)-one]
15 | 0.69 | COc1cc(C(C)(F)F)ncc1-c1nccc2[nH]c(=O)c(-c3nc4c(C)nc(Cl)cc4[nH]3)cc12 [Example 65, 3-(6-chloro-4-methyl-1H-imidazo[4,5-c]pyridin-2-yl)-5-[6-(1,1-difluoroethyl)-4-methoxypyridin-3-yl]-1,6-naphthyridin-2(1H)-one]
67 | 2.2 | COc1nc(C)ccc1-c1nccc2[nH]c(=O)c(-c3nc4cnc(Cl)cc4[nH]3)cc12 [Example 66, 3-(6-chloro-1H-imidazo[4,5-c]pyridin-2-yl)-5-(2-methoxy-6-methylpyridin-3-yl)-1,6-naphthyridin-2(1H)-one]
32 | 1 | COc1nc(C)ccc1-c1nccc2[nH]c(=O)c(-c3nc4c(C)nc(Cl)cc4[nH]3)cc12 [Example 67, 3-(6-chloro-4-methyl-1H-imidazo[4,5-c]pyridin-2-yl)-5-(2-methoxy-6-methylpyridin-3-yl)-1,6-naphthyridin-2(1H)-one]
